From patent publication US12091426B2, “Bifunctional degraders of hematopoietic progenitor kinase and therapeutic uses thereof” (Nurix Therapeutics, Inc., priority 2021, dated 2024)

Target: T1, HPK1 (Homo sapiens, UniProt Q92918)
T1 construct: A HiBiT tag was introduced by CRISPR on the N terminus of HPK1 in Jurkat cells; host or cells: Jurkat cells (ATCC TIB-152), monoclonal line with CRISPR knock-in of HiBiT at the endogenous HPK1 locus
Assay: HPK1 Cellular HiBit Degradation Assay
Type: cell-based
Details: HiBiT HPK1 Jurkat cells, 24 hrs; for DC50: concentration at which 50% of HPK1 was remaining, read-out: DC50 Category; for Dmax: Jurkat, maximum degradation vs DMSO vehicle control, read-out: Dmax Category
Method in brief: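 Jurkat cells with CRISPR knock-in N-terminal HiBiT-HPK1 were treated with CTMs (11-point, 3.16-fold, 10 uM to 0.1 nM final) for 24 hrs at 37° C. HiBiT lytic luminescence, with parental Jurkat as background and DMSO as 100%, gave % HPK1 remaining; four-parameter fit yielded DC50 and Dmax (100 minus lowest % remaining).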

T1 sequence (Q92918 whole entry): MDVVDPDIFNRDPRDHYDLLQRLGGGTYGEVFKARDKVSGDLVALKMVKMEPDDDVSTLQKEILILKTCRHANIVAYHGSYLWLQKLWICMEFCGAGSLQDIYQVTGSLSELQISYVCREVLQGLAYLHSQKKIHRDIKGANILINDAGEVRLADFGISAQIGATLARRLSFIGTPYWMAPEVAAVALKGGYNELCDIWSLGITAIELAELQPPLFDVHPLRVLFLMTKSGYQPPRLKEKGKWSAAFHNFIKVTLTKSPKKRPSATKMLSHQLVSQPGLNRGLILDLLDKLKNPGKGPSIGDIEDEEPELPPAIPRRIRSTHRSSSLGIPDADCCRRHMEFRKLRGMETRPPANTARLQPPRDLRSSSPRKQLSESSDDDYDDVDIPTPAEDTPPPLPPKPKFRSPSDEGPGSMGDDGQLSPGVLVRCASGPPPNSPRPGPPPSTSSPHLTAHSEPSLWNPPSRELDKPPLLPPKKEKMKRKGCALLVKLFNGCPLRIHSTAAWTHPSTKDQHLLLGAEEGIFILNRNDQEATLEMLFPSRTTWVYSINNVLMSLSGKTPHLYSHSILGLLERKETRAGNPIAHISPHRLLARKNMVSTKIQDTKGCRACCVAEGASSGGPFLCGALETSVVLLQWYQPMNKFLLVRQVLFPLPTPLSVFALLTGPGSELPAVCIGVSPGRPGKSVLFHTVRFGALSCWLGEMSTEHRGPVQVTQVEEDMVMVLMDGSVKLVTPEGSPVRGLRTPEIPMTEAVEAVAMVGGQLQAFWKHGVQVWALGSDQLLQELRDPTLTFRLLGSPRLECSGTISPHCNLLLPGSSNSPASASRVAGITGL

| SMILES | DC50 | Dmax |
| --- | --- | --- |
| Cc1cc(F)c(Nc2nc(-c3ccc4c(c3)N([C@H]3C[C@@H](N5CCCCC5)C3)C(=O)C43CCN(C(=O)c4cc(C(=O)N5CCN(c6ccc7c(c6)C(=O)N(C6CCC(=O)NC6=O)C7=O)CC5)n(C)n4)CC3)cc3ncn(C(C)C)c23)cc1C(=O)NC(C)C (mixture of isomers) [Example 145, 5-[(6-{1′-[5-(4-{2-[(3RS)-2,6-dioxopiperidin-3-yl]-1,3-dioxo-2,3-dihydro-1H-isoindol-5-yl}piperazine-1-carbonyl)-1-methyl-1H-pyrazole-3-carbonyl]-2-oxo-1-[(1S,3S)-3-(piperidin-1-yl)cyclobutyl]-1,2-dihydrospiro[indole-3,4′-piperidin]-6-yl}-3-(propan-2-yl)-3H-imidazo[4,5-c]pyridin-4-yl)amino]-4-fluoro-2-methyl-N-(propan-2-yl)benzamide] | 500 to 1000 nM | 50 to 70% |
| CC(C)n1cnc2cc(-c3ccc4c(c3)N([C@H]3C[C@@H](N5CCCCC5)C3)C(=O)C43CCN(C(=O)C4CCN(C(=O)[C@H]5CC[C@H](C(=O)N6CCc7cc(N8CCC(=O)NC8=O)ccc7C6)CC5)CC4)CC3)nc(Nc3ccccc3F)c21 [Example 49, 1-{2-[(1R,4R)-4-{4-[(6-{4-[(2-fluorophenyl)amino]-3-(propan-2-yl)-3H-imidazo[4,5-c]pyridin-6-yl}-2-oxo-1-[(1S,3S)-3-(piperidin-1-yl)cyclobutyl]-1,2-dihydrospiro[indole-3,4′-piperidin]-1′-yl)carbonyl]piperidine-1-carbonyl}cyclohexanecarbonyl]-1,2,3,4-tetrahydroisoquinolin-6-yl}-1,3-diazinane-2,4-dione] | 100 to 500 nM | 50 to 70% |
| Cc1cc(F)c(Nc2nc(-c3ccc4c(c3)N([C@H]3C[C@@H](N5CCCCC5)C3)C(=O)C43CCN(C(=O)C4=CCN(C(=O)[C@H]5CC[C@H](Nc6cccc7c6C(=O)N(C6CCC(=O)NC6=O)C7=O)CC5)CC4)CC3)cc3ncn(C(C)C)c23)cc1C(=O)NC(C)C (mixture of isomers) [Example 36, 4-fluoro-2-methyl-5-{[6-(2-oxo-1′-{1-[(1R,4R)-4-({2-[(3RS)-2,6-dioxopiperidin-3-yl]-1,3-dioxo-2,3-dihydro-1H-isoindol-4-yl}amino)cyclohexanecarbonyl]-1,2,3,6-tetrahydropyridine-4-carbonyl}-1-[(1S,3S)-3-(piperidin-1-yl)cyclobutyl]-1,2-dihydrospiro[indole-3,4′-piperidin]-6-yl)-3-(propan-2-yl)-3H-imidazo[4,5-c]pyridin-4-yl]amino}-N-(propan-2-yl)benzamide] | 100 to 500 nM | 50 to 70% |
| CC(C)n1cnc2cc(-c3ccc4c(c3)N([C@H]3C[C@@H](N5CCCCC5)C3)C(=O)C43CCN(C(=O)[C@]4(C)CCN(C(=O)C5CCN(c6ccc([C@@H]7CCC(=O)NC7=O)cc6)CC5)C4)CC3)nc(NC3CC3)c21 (racemic) [Example 244, (3RS)-3-(4-{4-[(3R)-3-({6-[4-(cyclopropylamino)-3-(propan-2-yl)-3H-imidazo[4,5-c]pyridin-6-yl]-2-oxo-1-[(1S,3S)-3-(piperidin-1-yl)cyclobutyl]-1,2-dihydrospiro[indole-3,4′-piperidin]-1′-yl}carbonyl)-3-methylpyrrolidine-1-carbonyl]piperidin-1-yl}phenyl)piperidine-2,6-dione] | < 100 nM | 70 to 85% |
| CC(C)n1cnc2cc(-c3ccc4c(c3)N([C@H]3C[C@@H](N5CCCCC5)C3)C(=O)C43CCN(C(=O)[C@@H]4CCN(C(=O)[C@H]5CC[C@H](Nc6ccc(C7CCC(=O)NC7=O)cc6)CC5)C4)CC3)nc(Nc3ccncc3F)c21 (stereo partly drawn) [Example 4, 3-(4-(((1R,4R)-4-((R)-3-(6-(4-((3-fluoropyridin-4-yl)amino)-3-isopropyl-3H-imidazo[4,5-c]pyridin-6-yl)-2-oxo-1-((1S,3S)-3-(piperidin-1-yl)cyclobutyl)spiro[indoline-3,4′-piperidine]-1′-carbonyl)pyrrolidine-1-carbonyl)cyclohexyl)amino)phenyl)piperidine-2,6-dione] | < 100 nM | > 85% |
| CC(C)n1cnc2cc(-c3ccc4c(c3)N([C@H]3C[C@@H](N5CCCCC5)C3)C(=O)C43CCN(C(=O)C4CCN(C[C@H]5CC[C@H](C(=O)N6CCc7cc(C8CCC(=O)NC8=O)ccc7C6)CC5)CC4)CC3)nc(Nc3ccccc3F)c21 (mixture of isomers) [Example 46] | 100 to 500 nM | > 85% |
| CC(C)n1cnc2cc(-c3ccc4c(c3)N([C@H]3C[C@@H](N5CCCCC5)C3)C(=O)C43CCN(C(=O)C4(C)CCN(C(=O)C5CCN(c6ccc(C7CCC(=O)NC7=O)nc6)CC5)CC4)CC3)nc(NC3CC3)c21 (mixture of isomers) [Example 118, (3RS)-3-(5-{4-[4-({6-[4-(cyclopropylamino)-3-(propan-2-yl)-3H-imidazo[4,5-c]pyridin-6-yl]-2-oxo-1-[(1S,3S)-3-(piperidin-1-yl)cyclobutyl]-1,2-dihydrospiro[indole-3,4′-piperidin]-1′-yl}carbonyl)-4-methylpiperidine-1-carbonyl]piperidin-1-yl}pyridin-2-yl)piperidine-2,6-dione] | < 100 nM | 50 to 70% |
| CC(C)n1cnc2cc(-c3ccc4c(c3)N([C@H]3C[C@@H](N5CCOCC5)C3)C(=O)C43CCN(C(=O)C4(C)CCN(C(=O)C5CCN(c6ccc(C7CCC(=O)NC7=O)cn6)CC5)CC4)CC3)nc(NC3CC3)c21 (mixture of isomers) [Example 216, (3RS)-3-(6-{4-[4-({6-[4-(cyclopropylamino)-3-(propan-2-yl)-3H-imidazo[4,5-c]pyridin-6-yl]-2-oxo-1-[(1S,3S)-3-(MORPHOLIN-4-yl)cyclobutyl]-1,2-dihydrospiro[indole-3,4′-piperidin]-1′-yl}carbonyl)-4-methylpiperidine-1-carbonyl]piperidin-1-yl}pyridin-3-yl)piperidine-2,6-dione] | 100 to 500 nM | 50 to 70% |
| CC(C)n1cnc2cc(-c3ccc4c(c3)N([C@H]3C[C@@H](N5CCCCC5)C3)C(=O)C43CCN(C(=O)[C@@H]4CCN(C(=O)[C@H]5CC[C@H](Nc6cc(C7CCC(=O)NC7=O)ccn6)CC5)C4)CC3)nc(Nc3ccccc3F)c21 (mixture of isomers) [Example 1, (3RS)-3-(2-{[(1R,4R)-4-[(3R)-3-[(6-{4-[(2-fluorophenyl)amino]-3-(propan-2-yl)-3H-imidazo[4,5-c]pyridin-6-yl}-2-oxo-1-[(1S,3S)-3-(piperidin-1-yl)cyclobutyl]-1,2-dihydrospiro[indole-3,4′-piperidin]-1′-yl)carbonyl]pyrrolidine-1-carbonyl]cyclohexyl]amino}pyridin-4-yl)piperidine-2,6-dione] | 100 to 500 nM | 70 to 85% |

The remaining lines, values ahead:

| DC50 | Dmax | SMILES |
| --- | --- | --- |
| < 100 nM | 70 to 85% | CC(C)n1cnc2cc(-c3ccc4c(c3)N([C@H]3C[C@@H](N5CCCCC5)C3)C(=O)C43CCN(C(=O)[C@@H]4CCN(C(=O)C5CCN(c6ccc(C7CCC(=O)NC7=O)cn6)CC5)[C@H](C)C4)CC3)nc(NC3CC3)c21 (mixture of isomers) [Example 245, (3RS)-3-(6-{4-[(2R,4R)-4-({6-[4-(cyclopropylamino)-3-(propan-2-yl)-3H-imidazo[4,5-c]pyridin-6-yl]-2-oxo-1-[(1S,3S)-3-(piperidin-1-yl)cyclobutyl]-1,2-dihydrospiro[indole-3,4′-piperidin]-1′-yl}carbonyl)-2-methylpiperidine-1-carbonyl]piperidin-1-yl}pyridin-3-yl)piperidine-2,6-dione] |
| < 100 nM | 70 to 85% | CC(C)n1cnc2cc(-c3ccc4c(c3)N([C@H]3C[C@@H](N5CCCCC5)C3)C(=O)C43CCN(C(=O)[C@@H]4[C@H]5CCN(C(=O)C6CCN(c7ccc(C8CCC(=O)NC8=O)cn7)CC6)[C@H]54)CC3)nc(Nc3ccccc3F)c21 (mixture of isomers) [Example 266, (3RS)-3-(6-{4-[(1R,5R,6R)-6-[(6-{4-[(2-fluorophenyl)amino]-3-(propan-2-yl)-3H-imidazo[4,5-c]pyridin-6-yl}-2-oxo-1-[(1S,3S)-3-(piperidin-1-yl)cyclobutyl]-1,2-dihydrospiro[indole-3,4′-piperidin]-1′-yl)carbonyl]-2-azabicyclo[3.1.0]hexane-2-carbonyl]piperidin-1-yl}pyridin-3-yl)piperidine-2,6-dione] |
| < 100 nM | > 85% | CCC1(C(=O)N2CCC3(CC2)C(=O)N([C@H]2C[C@@H](N4CCCCC4)C2)c2cc(-c4cc5ncn(C(C)C)c5c(NC5CC5)n4)ccc23)CCN(C(=O)C2CCN(c3ccc(C4CCC(=O)NC4=O)cn3)CC2)CC1 (mixture of isomers) [Example 255, (3RS)-3-(6-{4-[4-({6-[4-(cyclopropylamino)-3-(propan-2-yl)-3H-imidazo[4,5-c]pyridin-6-yl]-2-oxo-1-[(1S,3S)-3-(piperidin-1-yl)cyclobutyl]-1,2-dihydrospiro[indole-3,4′-piperidin]-1′-yl}carbonyl)-4-ethylpiperidine-1-carbonyl]piperidin-1-yl}pyridin-3-yl)piperidine-2,6-dione] |
| < 100 nM | > 85% | CC(C)n1cnc2cc(-c3ccc4c(c3)N([C@H]3C[C@@H](N5CCCCC5)C3)C(=O)C43CCN(C(=O)C4(C(F)F)CCN(C(=O)C5CCN(c6ccc(C7CCC(=O)NC7=O)cn6)CC5)CC4)CC3)nc(NC3CC3)c21 (mixture of isomers) [Example 276, (3RS)-3-(6-{4-[4-({6-[4-(cyclopropylamino)-3-(propan-2-yl)-3H-imidazo[4,5-c]pyridin-6-yl]-2-oxo-1-[(1S,3S)-3-(piperidin-1-yl)cyclobutyl]-1,2-dihydrospiro[indole-3,4′-piperidin]-1′-yl}carbonyl)-4-(difluoromethyl)piperidine-1-carbonyl]piperidin-1-yl}pyridin-3-yl)piperidine-2,6-dione] |
